{"source": "patent US6461997B1", "about": "“Triazole sulfones having herbicidal activity” (Monsanto Technology LLC, priority 1999, dated 2002)", "key": {"ECHCG (barnyardgrass)": {"test_system": "ECHCG (barnyardgrass)", "test": "Pre-emergence herbicidal activity, warm season", "format": "in vivo, Echinochloa crus-galli", "details": "GR80 = lowest tested rate (300, 100, 30, 10 g/ha) with 80% or greater inhibition; approx. 14 days after treating; 30/21° C.", "outline": "(§1)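 Seeds sown in sterilised fertilised topsoil received surface-applied compound in 50:50 acetone/water, typically at 300, 100, 30 and 10 g/ha, then greenhouse-grown at 30/21° C (warm-season species) or 18/13° C (cool-season species). Percent inhibition versus untreated plants was scored at about 14 days, giving GR80; an asterisk marks activity short of 80% at the top rate.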"}, "wheat (TRZAW)": {"test_system": "wheat (TRZAW)", "test": "Selectivity test, PPI, cool season crop", "format": "in vivo, Triticum aestivum", "details": "PPI application", "outline": "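Pre-plant incorporated: compound in organic solvent sprayed onto cover soil, mixed and laid over seeds; untreated soil for controls. Greenhouse after treatment: warm season 30/21° C., cool season 18/13° C. day/night. Percent inhibition versus untreated plants scored about 14 days after planting.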"}, "[1]": {"test_system": "SORHA (johnsongrass (seedling))", "test": "Pre-emergence herbicidal activity, warm season", "format": "in vivo, Sorghum halepense", "details": "GR80 = lowest tested rate (300, 100, 30, 10 g/ha) with 80% or greater inhibition; approx. 14 days after treating; 30/21° C.", "outline": "as §1"}, "AMARE (redroot pigweed)": {"test_system": "AMARE (redroot pigweed)", "test": "Pre-emergence herbicidal activity, warm season", "format": "in vivo, Amaranthus retroflexus", "details": "GR80 = lowest tested rate (300, 100, 30, 10 g/ha) with 80% or greater inhibition; approx. 14 days after treating; 30/21° C.", "outline": "as §1"}, "[2]": {"test_system": "LAMPU (purple deadnettle)", "test": "Pre-plant incorporated (PPI) herbicidal activity, cool season", "format": "in vivo, Lamium purpureum", "details": "weed, PPI application", "outline": "(§2)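 Greenhouse PPI test with treated cover soil over seeds; % inhibition vs untreated at about 14 days.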"}, "[3]": {"test_system": "BRAPP (broadleaf signalgrass)", "test": "Pre-emergence herbicidal activity, warm season", "format": "in vivo, Brachiaria platyphylla", "details": "GR80 = lowest tested rate (300, 100, 30, 10 g/ha) with 80% or greater inhibition; approx. 14 days after treating; 30/21° C.", "outline": "as §1"}, "SORVU (shattercane)": {"test_system": "SORVU (shattercane)", "test": "Pre-plant incorporated (PPI) herbicidal activity, warm season", "format": "in vivo, Sorghum vulgare", "details": "PPI application", "outline": "as §2"}, "PANDI (fall panicum)": {"test_system": "PANDI (fall panicum)", "test": "Pre-emergence herbicidal activity, warm season", "format": "in vivo, Panicum dichotomiflorum", "details": "GR80 = lowest tested rate (300, 100, 30, 10 g/ha) with 80% or greater inhibition; approx. 14 days after treating; 30/21° C.", "outline": "as §1"}, "SETVI (green foxtail)": {"test_system": "SETVI (green foxtail)", "test": "Pre-plant incorporated (PPI) herbicidal activity, cool season", "format": "in vivo, Setaria viridis", "details": "weed, PPI application", "outline": "as §2"}, "[4]": {"test_system": "AGSST (creeping bentgrass)", "test": "Pre-emergence herbicidal activity, cool season", "format": "in vivo, Agrostis stolonifera", "details": "GR80 = lowest tested rate (300, 100, 30, 10 g/ha) with 80% or greater inhibition; approx. 14 days after treating; 18/13° C.", "outline": "as §1"}, "ALOMY (blackgrass)": {"test_system": "ALOMY (blackgrass)", "test": "Pre-plant incorporated (PPI) herbicidal activity, cool season", "format": "in vivo, Alopecurus myosuroides", "details": "weed, PPI application", "outline": "as §2"}}, "data": [{"smiles": "CCN(CC)C(=O)n1cnc(S(=O)(=O)C(F)(F)C(F)(F)Br)n1", "note": "[Example 4]", "values": [{"measurement": "Pre-emergence activity (GR80) ECHCG", "setting": "ECHCG (barnyardgrass)", "value": 100, "unit": "g/ha"}, {"measurement": "Percent inhibition TRZAW", "setting": "wheat (TRZAW); 30 g/ha", "value": 0, "unit": "%"}, {"measurement": "Percent inhibition TRZAW", "setting": "wheat (TRZAW); 100 g/ha", "value": 10, "unit": "%"}, {"measurement": "Percent inhibition TRZAW", "setting": "wheat (TRZAW); 300 g/ha", "value": 30, "unit": "%"}, {"measurement": "Percent inhibition TRZAW", "setting": "wheat (TRZAW); 900 g/ha", "value": 45, "unit": "%"}, {"measurement": "Pre-emergence activity (GR80) SORHA", "setting": "[1]", "value": 30, "unit": "g/ha"}, {"measurement": "Pre-emergence activity (GR80) AMARE", "setting": "AMARE (redroot pigweed)", "value": 100, "unit": "g/ha"}, {"measurement": "Percent inhibition LAMPU", "setting": "[2]; 30 g/ha", "value": 40, "unit": "%"}, {"measurement": "Percent inhibition LAMPU", "setting": "[2]; 100 g/ha", "value": 80, "unit": "%"}, {"measurement": "Percent inhibition LAMPU", "setting": "[2]; 300 g/ha", "value": 80, "unit": "%"}, {"measurement": "Percent inhibition LAMPU", "setting": "[2]; 900 g/ha", "value": 90, "unit": "%"}, {"measurement": "Pre-emergence activity (GR80) BRAPP", "setting": "[3]", "value": 300, "unit": "g/ha"}, {"measurement": "Percent inhibition SORVU", "setting": "SORVU (shattercane); 30 g/ha", "value": 0, "unit": "%"}, {"measurement": "Percent inhibition SORVU", "setting": "SORVU (shattercane); 100 g/ha", "value": 45, "unit": "%"}, {"measurement": "Percent inhibition SORVU", "setting": "SORVU (shattercane); 300 g/ha", "value": 100, "unit": "%"}, {"measurement": "Percent inhibition SORVU", "setting": "SORVU (shattercane); 900 g/ha", "value": 100, "unit": "%"}, {"measurement": "Pre-emergence activity (GR80) PANDI", "setting": "PANDI (fall panicum)", "value": 30, "unit": "g/ha"}, {"measurement": "Percent inhibition SETVI", "setting": "SETVI (green foxtail); 30 g/ha", "value": 99, "unit": "%"}, {"measurement": "Percent inhibition SETVI", "setting": "SETVI (green foxtail); 100 g/ha", "value": 100, "unit": "%"}, {"measurement": "Percent inhibition SETVI", "setting": "SETVI (green foxtail); 300 g/ha", "value": 100, "unit": "%"}, {"measurement": "Percent inhibition SETVI", "setting": "SETVI (green foxtail); 900 g/ha", "value": 100, "unit": "%"}, {"measurement": "Pre-emergence activity (GR80) AGSST", "setting": "[4]", "value": 10, "unit": "g/ha"}, {"measurement": "Percent inhibition ALOMY", "setting": "ALOMY (blackgrass); 30 g/ha", "value": 70, "unit": "%"}, {"measurement": "Percent inhibition ALOMY", "setting": "ALOMY (blackgrass); 100 g/ha", "value": 95, "unit": "%"}, {"measurement": "Percent inhibition ALOMY", "setting": "ALOMY (blackgrass); 300 g/ha", "value": 100, "unit": "%"}, {"measurement": "Percent inhibition ALOMY", "setting": "ALOMY (blackgrass); 900 g/ha", "value": 100, "unit": "%"}]}, {"smiles": "CCN(CC)C(=O)n1cnc(S(=O)(=O)C(F)(F)F)n1", "note": "[Example 2]", "values": [{"measurement": "Pre-emergence activity (GR80) ECHCG", "setting": "ECHCG (barnyardgrass)", "value": 30, "unit": "g/ha"}, {"measurement": "Percent inhibition TRZAW", "setting": "wheat (TRZAW); 30 g/ha", "value": 0, "unit": "%"}, {"measurement": "Percent inhibition TRZAW", "setting": "wheat (TRZAW); 100 g/ha", "value": 0, "unit": "%"}, {"measurement": "Percent inhibition TRZAW", "setting": "wheat (TRZAW); 300 g/ha", "value": 30, "unit": "%"}, {"measurement": "Percent inhibition TRZAW", "setting": "wheat (TRZAW); 900 g/ha", "value": 30, "unit": "%"}, {"measurement": "Pre-emergence activity (GR80) SORHA", "setting": "[1]", "value": 100, "unit": "g/ha"}, {"measurement": "Pre-emergence activity (GR80) AMARE", "setting": "AMARE (redroot pigweed)", "value": 30, "unit": "g/ha"}, {"measurement": "Percent inhibition LAMPU", "setting": "[2]; 30 g/ha", "value": 30, "unit": "%"}, {"measurement": "Percent inhibition LAMPU", "setting": "[2]; 100 g/ha", "value": 70, "unit": "%"}, {"measurement": "Percent inhibition LAMPU", "setting": "[2]; 300 g/ha", "value": 95, "unit": "%"}, {"measurement": "Percent inhibition LAMPU", "setting": "[2]; 900 g/ha", "value": 100, "unit": "%"}, {"measurement": "Pre-emergence activity (GR80) BRAPP", "setting": "[3]", "value": 300, "unit": "g/ha"}, {"measurement": "Percent inhibition SORVU", "setting": "SORVU (shattercane); 30 g/ha", "value": 50, "unit": "%"}, {"measurement": "Percent inhibition SORVU", "setting": "SORVU (shattercane); 100 g/ha", "value": 100, "unit": "%"}, {"measurement": "Percent inhibition SORVU", "setting": "SORVU (shattercane); 300 g/ha", "value": 95, "unit": "%"}, {"measurement": "Percent inhibition SORVU", "setting": "SORVU (shattercane); 900 g/ha", "value": 100, "unit": "%"}, {"measurement": "Pre-emergence activity (GR80) PANDI", "setting": "PANDI (fall panicum)", "value": 30, "unit": "g/ha"}, {"measurement": "Percent inhibition SETVI", "setting": "SETVI (green foxtail); 30 g/ha", "value": 80, "unit": "%"}, {"measurement": "Percent inhibition SETVI", "setting": "SETVI (green foxtail); 100 g/ha", "value": 100, "unit": "%"}, {"measurement": "Percent inhibition SETVI", "setting": "SETVI (green foxtail); 300 g/ha", "value": 100, "unit": "%"}, {"measurement": "Percent inhibition SETVI", "setting": "SETVI (green foxtail); 900 g/ha", "value": 100, "unit": "%"}, {"measurement": "Pre-emergence activity (GR80) AGSST", "setting": "[4]", "value": 30, "unit": "g/ha"}, {"measurement": "Percent inhibition ALOMY", "setting": "ALOMY (blackgrass); 30 g/ha", "value": 50, "unit": "%"}, {"measurement": "Percent inhibition ALOMY", "setting": "ALOMY (blackgrass); 100 g/ha", "value": 90, "unit": "%"}, {"measurement": "Percent inhibition ALOMY", "setting": "ALOMY (blackgrass); 300 g/ha", "value": 100, "unit": "%"}, {"measurement": "Percent inhibition ALOMY", "setting": "ALOMY (blackgrass); 900 g/ha", "value": 100, "unit": "%"}]}]}
